Reference: patent publication US7396842B2, “Five-membered cyclic compounds” (Dianippon Sumitomo Pharma Co., Ltd., priority 2002, dated 2008)

Molecular target: T1, SMBS on rat lung membranes (Rattus norvegicus, UniProt A0A8I6A822)
T1 construct: from tissue; host or cells: rat lung membranes (SD male rats)
Assay: Receptor binding of the compound in rat lung membranes ([125I]-iodo-cyanopindolol ligand binding assay; Experiments 1 and 4)
Conditions: Table 37; compound concentration 30 μM; [125I]-iodo-cyanopindolol, rat lung membranes; Experiment 1; read-out: Binding Activity (30 μM)
Protocol: Evaluation Test on Receptor Binding of the Compound in Rat Lung Membranes:
This experiment was carried out according to the method disclosed in Sugasawa et al., (Sugasawa, T. et al., J. Biol. Chem., 272, 21244-21252(1997)).
Preparation of Rat Lung Membranes
The air tube and blood vessels were removed from the lung excised from SD male rats (7-weeks old when used, purchased from Charles River Japan, Inc.), and the lung was chopped, and washed with ice-cold tris-saline buffer (10 mM Tris-HCl, 154 mM sodium chloride, pH 7.4). The lung was homogenized by PHYSCOTRON (maximum speed: 1 minute) in a buffer for homogenization (tris-saline buffer containing 1 mM ethylenediaminetetraacetate (EDTA), 1 mM 4-(2-aminoethyl)-benzenesulfonyl fluoride (AEBSF), 5 μg/ml aprotinin, 5 μg/ml leupeptin) under ice-cooling. The mixture was centrifuged at a low speed (1500×g, 20 minutes, 4° C.), and the supernatant was super-centrifuged (100000×g, 20 minutes, 4° C.). The pellets thus obtained were suspended in tris-saline buffer, and kept at −80° C. The concentration of protein was measured by a Protein Assay Kit manufactured by Bio-Rad using bovine serum albumin (BSA) as standard.
To each well of a protein-non-adsorbent round-bottom 96-well assay plate (purchased from IWAKI GLASS CO., LTD.) was added tris-saline buffer (200 μl) containing 1 nM [^125I]-iodo-cyanopindolol (purchased from Amarsham), 10 μM serotonin, 20 μM dl-propranol, 10 μM phentoramine, 1.1 mM ascorbic acid and 100 μg lung membranes, and the mixture was mixed well by pipetting, and the plate was incubated at 37° C. for 30 minutes. Test compounds were dissolved in 100% dimethylsulfoxide, and added to the plate in an amount of 2 μl (final concentration of DMSO: 1%). In order to obtain non-specific binding, L-threo-3-(3,4-dihydroxyphenyl)-N-[3-(4-fluorophenyl)propyl]-serinepyrrolidinamide was added at a final concentration of 100 μM instead of test compound. During this period, 0.3% polyethyleneimine (PEI)/tris-saline buffer (100 μl) was added to a multiscreen plate (96-well B-glassfiber, milipore Cat. No. MAFB NOB10) and the plate was incubated for more than 30 minutes. The plate was washed by vacuum filtration (by adding ice-cold tris-saline buffer (200 μl) and then vacuum filtration), and the reaction solution on the 96-well assay plate was washed by vacuum filtration onto the multiscreen plate for four times. The B-glassfiber paper filter at the bottom of the multiscreen plate was punched out, and the γ-ray amount of [^125I]-iodo-cyanopindolol being trapped onto the paper filter was measured as binding amount. The binding amount in the presence of DMSO (final concentration: 1%) was regarded as total binding, and the binding in the presence of L-threo-3-(3,4-dihydroxyphenyl) -N-[3-(4-fluorophenyl)-propyl]serinepyrrolidinamide was regarded as non-specific binding. The value which is calculated by subtracting non-specific binding from total binding is specific binding. The binding activity of the compound can be calculated by the following equation, and expressed in a ratio of inhibiting the specific binding of [^125I]-iodo-cyanopindorol to SMBS on rat lung membranes.
In the same manner to in Experiment 1, the receptor binding assay was carried out on the present compounds by using the rat lung membranes.

T1 sequence (A0A8I6A822 27-587): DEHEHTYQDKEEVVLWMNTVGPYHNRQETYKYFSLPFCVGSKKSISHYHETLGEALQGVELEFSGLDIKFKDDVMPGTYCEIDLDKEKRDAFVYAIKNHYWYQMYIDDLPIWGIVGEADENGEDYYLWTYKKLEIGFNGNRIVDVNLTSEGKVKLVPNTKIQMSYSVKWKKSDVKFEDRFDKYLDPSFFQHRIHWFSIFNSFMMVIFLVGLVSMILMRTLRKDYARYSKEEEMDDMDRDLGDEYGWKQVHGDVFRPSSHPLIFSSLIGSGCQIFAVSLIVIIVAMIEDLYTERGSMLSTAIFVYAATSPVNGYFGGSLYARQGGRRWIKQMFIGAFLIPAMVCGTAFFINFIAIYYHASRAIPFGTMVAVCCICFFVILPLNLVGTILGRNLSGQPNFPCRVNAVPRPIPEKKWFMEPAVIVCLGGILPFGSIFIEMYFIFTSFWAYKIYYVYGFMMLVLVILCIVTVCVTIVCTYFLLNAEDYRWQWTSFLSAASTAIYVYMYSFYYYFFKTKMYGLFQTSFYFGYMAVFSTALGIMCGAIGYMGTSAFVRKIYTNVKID

Row | inhibition at 30 µM [%] | SMILES
1 | 79 | COc1ccc(-c2csc(=Nc3ccccc3)n2CCCN)cc1 [Example 9, N-[3-(3-Aminopropyl)-4-(4-methoxyphenyl)-thiazol-2(3H) -ylidene]aniline]

Same assay, conditions: Table 42; concentration tested 30 μM; rat lung membranes; Experiment 4; read-out: Binding Activity (30 μM)

Row | inhibition at 30 µM [%] | SMILES
2 | 110 | N=C(NCCCn1c(-c2ccc(N3CCOCC3)cc2)cs/c1=N\c1ccc(F)cc1)N1CCCCC1 [Example 257]
3 | 98 | CCOC(=O)NCCCn1c(-c2ccc(N3CCOCC3)cc2)cs/c1=N\c1ccc(F)cc1 [Example 250]
4 | 34 | O=C(NCCCn1c(-c2ccc(N3CCOCC3)cc2)cs/c1=N\c1ccc(F)cc1)Nc1ccc(F)cc1 [Example 288]
5 | 99 | CNC(=O)NCCn1c(-c2ccc(N3CCOCC3)cc2)csc1=Nc1ccc(F)cc1 [Example 214, N-Methyl-N′-{2-[2-[(4-fluorophenyl)imino]-4-[4-(morpholino)phenyl]-thiazol-3(2H)-yl]ethyl}urea]

Same assay, conditions: Table 43; concentration tested 30 μM; rat lung membranes; Experiment 4; read-out: Binding Activity (30 μM)

Row | inhibition at 30 µM [%] | SMILES
6 | 93 | CCNC(=O)NCCCn1c(-c2ccc(N3CCOCC3)cc2)cs/c1=N\c1nccs1 [Example 299]
7 | 89 | COCCNC(=O)NCCCn1c(-c2ccc(N3CCOCC3)cc2)cs/c1=N\c1ccc(F)cc1 [Example 355]
8 | 88 | CN(C)CC(=O)NCCCn1c(-c2ccc(N3CCOCC3)cc2)cs/c1=N\c1ccc(F)cc1 [Example 361]
9 | 86 | O=C(CN1CCCC1)NCCCn1c(-c2ccc(N3CCOCC3)cc2)csc1=Nc1ccc(F)cc1 [Example 357, N-{3-[2-[(4-Fluorophenyl)imino]-4-[4-(morpholino)phenyl]thiazol-3(2H)-yl]propyl}-2-(1-pyrrolidinyl)acetamide]
10 | 101 | CCNC(=O)CNCCCn1c(-c2ccc(N3CCOCC3)cc2)csc1=Nc1ccc(F)cc1 [Example 335, N^1-ethyl-N^2-{3-[2-[(4-fluorophenyl)imino]-4-[4-(morpholino)phenyl]-thiazol-3(2H)-yl]propyl}glycinamide]

The next lines start with the molecule.

Row | SMILES | inhibition at 30 µM [%]
11 | CCNC(=O)NCCCn1c(-c2ccc(F)cc2)cs/c1=N\Cc1ccc(Cl)cc1OC [Example 402, N-{3-[2-[(4-Chloro-2-methoxybenzyl)imino]-4-(4-fluorophenyl)-1,3-thiazol-3(2H)-yl]propyl}-N′-ethylurea] | 79
12 | CCNC(=O)CNCCCn1c(-c2ccc(OC(F)(F)F)cc2)cs/c1=N\Cc1ccc(Cl)cc1 [Example 417, N^2-{3-[2-[(4-Chlorobenzyl)imino]-4-[4-(trifluoromethoxy)phenyl]-1,3-thiazol-3(2H)-yl]propyl}-N^1-ethylglycinamide] | 113

Same assay, conditions: Table 44; concentration tested 30 μM; rat lung membranes; Experiment 4; read-out: Binding Activity (30 μM)

Row | inhibition at 30 µM [%] | SMILES
13 | 37 | CCNC(=O)NCCCn1c(-c2ccc(OC)cc2)cs/c1=N\CCc1ccncc1 [Example 398]
14 | 115 | O=C(NCCCn1c(-c2ccc(OC(F)(F)F)cc2)cs/c1=N\Cc1ccc(Cl)cc1)N1CCOCC1 [Example 405]
15 | 77 | CCCCCC(=O)NCCCn1c(-c2ccc(OC(F)(F)F)cc2)cs/c1=N\C(=O)c1ccc(OC)cc1OC [Example 448]
16 | 61 | NCCCn1c(-c2ccc(OC(F)(F)F)cc2)cs/c1=N\C(=O)c1ccco1 [Example 441]
17 | 71 | CC(=O)NCCCn1c(-c2ccc(OC(F)(F)F)cc2)cs/c1=N\C(=O)c1ccccn1 [Example 449]
18 | 103 | COc1cc(Cl)ccc1C/N=c1\scc(-c2ccc(F)cc2)n1CCCNC(=N)N [Example 429, N′-{3-[2-[(4-Chloro-2-methoxybenzyl)imino]-4-(4-fluorophenyl)-1,3-thiazol-3(2H)-yl]propyl}guanidine]

Same assay, conditions: ratio of inhibiting the specific binding of [125I]-iodo-cyanopindolol; test concentration 30 μM; rat lung membranes; read-out: Binding Activity (30 μM)

Row | inhibition at 30 µM [%] | SMILES
19 | 74 | COc1ccc(C(=O)/N=c2\scc(-c3ccc(OC(F)(F)F)cc3)n2CCCNCC(N)=O)c(OC)c1 [Example 521]
20 | 103 | COc1ccc(C(=O)/N=c2\scc(-c3ccc(OC(F)(F)F)cc3)n2CCCNC(=O)N2CCOCC2)c(OC)c1 [Example 509]
21 | 99 | CCOC(=O)CCNCCCn1c(-c2ccc(OC(F)(F)F)cc2)cs/c1=N\C(=O)c1ccc(OC)cc1OC [Example 520]

Same assay, conditions: read-out: Binding Activity (30 μM)

Row | SMILES | inhibition at 30 µM [%]
22 | O=C(NCCCl)NCCCn1c(-c2ccc(OC(F)(F)F)cc2)cs/c1=N\Cc1ccc(Cl)cc1 [Example 390] | 120
